Series [1] concerns RAW264.7. The experiment in a line: Cytotoxicity against LPS-stimulated mouse RAW264.7 cells assessed as cell viability at 50 uM after 24 hrs by MTT assay. The series is classed as cell-based. To be noted: raw264.7, 24 h. (Formazan colour is commonly taken as a measure of viable cells.)
For series [2], the system named is RAW264.7. As to the kind of experiment: Cytotoxicity against mouse RAW264.7 cells assessed as cell viability at 50 uM after 24 hrs by MTT assay. The series is classed as cell-based. To be noted: for Activity: mouse, raw264.7, 24 h, 50 µM.
In series [3] the test system is RAW264.7. The experiment in a line: Antiinflammatory activity in mouse RAW264.7 cells assessed as inhibition of LPS-induced nitric oxide production by Griess reaction method. The series is classed as functional, cell-based. A general note: The Griess reaction detects nitrite, a stable product of nitric oxide.
Series [4] has as its system RAW264.7. As to the kind of experiment: Inhibition of LPS-induced COX-2 expression in mouse RAW264.7 cells at 1 to 30 uM treated 30 mins before LPS challenge measured after 18 hrs by immunoblot analysis. It counts as functional, cell-based. In general terms: A western blot detects proteins with antibodies after separation by electrophoresis.
Series [5] has as its system RAW264.7. The experiment in a line: Inhibition of LPS-induced iNOS expression in mouse RAW264.7 cells treated 30 mins before LPS challenge measured after 18 hrs by immunoblot analysis. It counts as functional, cell-based.

Activity calls are given as the source filed them. The calls are words filed in the database; no cut-off is given here.

For `CC(C)[C@@H](C)/C=C/[C@@H](C)[C@H]1CC[C@H]2C3=CC[C@H]4C[C@@H](O)CC[C@]4(C)[C@H]3CC[C@]12C`, the Activity entry in the series with RAW264.7 [1] and in the series with RAW264.7 [2] was “Non-toxic” each time.
Usually IC50 stands for the concentration that gives 50% inhibition. As to `CCCCOC(=O)CC[C@@H](C)[C@H]1CC(=O)[C@@]2(C)C3=C(C(=O)[C@@H](OC(C)=O)[C@]12C)[C@@]1(C)CCC(=O)C(C)(C)[C@@H]1CC3=O` [BUTYL LUCIDENATE D2], the IC50 in the series on RAW264.7 [3] was found to be 35 µM. The Activity result in the series on RAW264.7 [1] and with RAW264.7 [2] was “Non-toxic” throughout.
`CCCCOC(=O)CC[C@@H](C)[C@H]1CC(=O)[C@@]2(C)C3=C(C(=O)[C@@H](OC(C)=O)[C@]12C)[C@@]1(C)CC[C@H](O)C(C)(C)[C@@H]1CC3=O` [BUTYL LUCIDENATE E2]: the inhibition result in the series with RAW264.7 [4] is “Active”. Besides, the inhibition result with RAW264.7 [5] was “Dose-dependent effect”. Also, in the series with RAW264.7 [3], the IC50 was 6.4 µM. Besides, the Activity result in the series on RAW264.7 [1] and in the series on RAW264.7 [2] was “Non-toxic” in each case.
As for `CCCCOC(=O)CC[C@@H](C)[C@H]1CC(=O)[C@@]2(C)C3=C(C(=O)C[C@]12C)[C@@]1(C)CC[C@H](O)C(C)(C)[C@@H]1C[C@@H]3O` [BUTYL LUCIDENATE N], the inhibition result in the series on RAW264.7 [4] is “Active”. Further, the inhibition entry in the series with RAW264.7 [5] is “Dose-dependent effect”. Further, the IC50 with RAW264.7 [3] came out at 4.5 µM. Further, the Activity entry in the series on RAW264.7 [1] and in the series on RAW264.7 [2] was “Non-toxic” each time.
With `CCCCOC(=O)CC[C@@H](C)[C@H]1CC(=O)[C@@]2(C)C3=C(C(=O)[C@@H](OC(C)=O)[C@]12C)[C@@]1(C)CC[C@H](O)C(C)(C)[C@@H]1C[C@@H]3O` [BUTYL LUCIDENATE P], the inhibition result in the series with RAW264.7 [4] was “Active”. The inhibition entry in the series with RAW264.7 [5] was “Dose-dependent effect”. Besides, the IC50 with RAW264.7 [3] was found to be 7.4 µM. For the same molecule, the Activity result with RAW264.7 [1] and in the series with RAW264.7 [2] was “Non-toxic” throughout.
Regarding `CC(C)[C@@H](C)/C=C/[C@@H](C)[C@H]1CC[C@@H]2[C@]1(C)CC[C@H]1[C@]23C=C[C@]2(C[C@@H](O)CC[C@]12C)OO3` [ERGOSTEROL PEROXIDE], the IC50 in the series with RAW264.7 [3] is 9.4 µM. In addition, the Activity result with RAW264.7 [1] and with RAW264.7 [2] was “Non-toxic” in each case.
As for `CC(C)[C@@H](C)/C=C/[C@@H](C)[C@H]1CC[C@H]2C3=CC=C4C[C@@H](O)CC[C@]4(C)[C@H]3CC[C@]12C` [ERGOSTEROL], the Activity entry in the series on RAW264.7 [1] and in the series on RAW264.7 [2] was “Non-toxic” each time.
Take `C[C@H](CCC=C(CO)CO)[C@H]1CC[C@@]2(C)C3=CC[C@H]4C(C)(C)C(=O)CC[C@]4(C)C3=CC[C@]12C` [GANODERIOL F]: in the series with RAW264.7 [3], the IC50 worked out at 36 µM. In addition, the Activity entry with RAW264.7 [1] and in the series with RAW264.7 [2] was “Non-toxic” throughout.
With `C[C@H](CC[C@@H](O)C(C)(C)O)[C@H]1CC[C@@]2(C)C3=CC[C@H]4C(C)(C)C(=O)CC[C@]4(C)C3=CC[C@]12C` [GANODERMANONDIOL], the Activity result in the series on RAW264.7 [1] and with RAW264.7 [2] was “Non-toxic” throughout.
As to `CCCCOC(=O)CC[C@@H](C)[C@H]1C[C@H](O)[C@@]2(C)C3=C(C(=O)C[C@]12C)[C@@]1(C)CCC(=O)C(C)(C)[C@@H]1C[C@@H]3O` [LUCIDENATE Q], the IC50 in the series on RAW264.7 [3] was found to be 4.3 µM; with RAW264.7 [2] (Mus musculus, RAW264.7, 24 h) it was 14 µM.
With `COC(=O)C(C)CC(=O)C[C@@H](C)[C@H]1CC(=O)[C@@]2(C)C3=C(C(=O)[C@@H](OC(C)=O)[C@]12C)[C@@]1(C)CC[C@H](O)C(C)(C)[C@@H]1CC3=O` (stereo partly specified) [METHYL GANODERATE H], the Activity entry with RAW264.7 [1] and in the series on RAW264.7 [2] was “Non-toxic” each time.
For `COC(=O)C(C)CC(=O)C[C@@H](C)[C@H]1C[C@H](O)[C@@]2(C)C3=C(C(=O)C[C@]12C)[C@@]1(C)CCC(=O)C(C)(C)[C@@H]1CC3=O` (stereo partly specified) [METHYL GANODERATE J], the IC50 in the series on RAW264.7 [3] is 9.2 µM. Besides, the Activity entry in the series on RAW264.7 [1] and in the series with RAW264.7 [2] was “Non-toxic” in each case.
`COC(=O)CC[C@@H](C)[C@H]1CC(=O)[C@@]2(C)C3=C(C(=O)C[C@]12C)[C@@]1(C)CCC(=O)C(C)(C)[C@@H]1C[C@@H]3O` [METHYL LUCIDENATE A]: the Activity entry in the series with RAW264.7 [1] and in the series with RAW264.7 [2] was “Non-toxic” each time.
`COC(=O)CC[C@@H](C)[C@H]1CC(=O)[C@@]2(C)C3=C(C(=O)C[C@]12C)[C@@]1(C)CC[C@H](O)C(C)(C)[C@@H]1C[C@@H]3O` [METHYL LUCIDENATE N]: the Activity result in the series on RAW264.7 [1] and in the series on RAW264.7 [2] was “Non-toxic” each time.

These data come from ChEMBL document CHEMBL2331133, “Inhibitory effect on NO production of triterpenes from the fruiting bodies of Ganoderma lucidum” (Bioorg Med Chem Lett, 2013).
